Bridge positions count the residues as written; N and C are the ends. Square brackets hold non-standard residues; d marks the D form. Ends that are not written are not given here. * marks the point of attachment. Biotin = O=C1N[C@H]2[C@H](CS[C@H]2CCCCC(=O)*)N1
Experiments:
[1] = system: invasive and metastatic cancer cells in tissue sections; assay: Overlay assay on paraffin tissue sections
Description: Octet binding assays were performed with an Octet RED96 system (ForteBio) as described ([13]). Briefly, the peptides were loaded onto streptavidin resin-coated biosensors (Sartorius Lab, 18–5019) at a concentration of 20 ug/ml in 1x kinetic buffer for 5 min. […] For all experiments, Ka (1/Ms) and Kd (1/s) were measured. FortéBio’s data analysis software was employed to fit the binding curve to a 1:1 binding model in order to extract association and dissociation rates. Overlay assay on tissues was performed by incubating AZDye555-BLMP6 (12.5 ug/ml) for 2 hr and washing with PBS before fixation with 4% paraformaldehyde.

[2] = system: HEK293 cells ectopically expressing FBLN4; assay: Fluorescent peptide binding to HEK293 cells; type: cell-based; details: Figure S2A
[3] = target: T1, FBLN4 (Mus musculus, UniProt Q9WVJ9); assay: Affinity purification of FBLN4 from 4T1 cell extract on BLMP6-loaded beads; type: binding; details: biotinylated BLMP6 immobilized on streptavidin-coated beads; not isolated on control beads
T1 construct: proteins extracted from 4T1 cells were incubated with beads pre-loaded with BLMP6; endogenous in cells; host or cells: 4T1 mouse breast cancer cells
T1 sequence (Q9WVJ9 28-443): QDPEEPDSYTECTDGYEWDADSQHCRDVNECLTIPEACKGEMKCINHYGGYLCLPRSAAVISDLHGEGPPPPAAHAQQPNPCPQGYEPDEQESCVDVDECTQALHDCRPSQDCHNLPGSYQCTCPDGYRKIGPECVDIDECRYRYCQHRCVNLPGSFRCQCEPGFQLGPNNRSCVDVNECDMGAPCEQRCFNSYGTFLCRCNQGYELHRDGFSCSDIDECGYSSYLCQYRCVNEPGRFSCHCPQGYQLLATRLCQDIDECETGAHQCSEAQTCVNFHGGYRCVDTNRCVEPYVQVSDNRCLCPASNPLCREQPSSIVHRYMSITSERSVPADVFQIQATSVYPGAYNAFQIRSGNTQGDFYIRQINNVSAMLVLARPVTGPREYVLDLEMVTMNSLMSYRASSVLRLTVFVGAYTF
Description: To test if BLMP6 binds to FBLN4 in vitro, we used Octet to perform the biolayer interferometry assay. […] To confirm BLMP6 binding to FBLN4 expressed by cancer cells, proteins extracted from 4T1 cells were incubated with beads pre-loaded with BLMP6. […] To confirm BLMP6 binding to FBLN4 in a genetic model, we used CRISPR/Cas9 to make 4T1 FBLN4 knockout (KO) cells confirmed by RT-PCR (Figure 1E). FBLN4-KO and control 4T1-luc cells were grafted into mice, and once metastases were detected by bioluminescence, phage displaying BLMP6 ([6]) was injected. After 30 min of circulation, heart perfusion was performed, and lungs were recovered. Section histopathology confirmed metastasis formation in all lungs, indicating FBLN4 expression is not required for cancer cell colonization and growth at the secondary site.

[4] = Stability in mouse serum; type: in vitro ADME; details: Figure S4B-C
Excerpt: To test MMAE-BLMP6 efficacy in vivo, we first analyzed its stability in mouse serum. […] We then used the experimental lung metastasis model of B16F10 cells injected intravenously to produce lung metastases.

[5] = system: B16F10 lung metastases; assay: B16F10 experimental lung metastasis model, treatment; type: in vivo, mouse; details: B16F10-luc iv
Excerpt: (§1) Animal studies were approved by the IACUC of UTHealth. Spontaneous cancer progression to metastases was modeled by injecting 2×10^4 4T1 cells into the mammary fat pad of 10-week-old female Balb/c mice (Jackson Laboratory) with a 31-gauge needle. Metastatic progression was monitored with bioluminescence imaging. For lung metastasis modeling, Balb/c mice were tail vein-injected with 2.5×10^5 4T1-luc WT or FBLN4-KO cells, C57BL/6 mice (Jackson) were tail vein-injected with 1×10^5 B16F10 cells, and athymic Nude-Foxn1nu (Envigo) mice were tail vein-injected with 1×10^5 MDA-MB-231-luc-GFP cells. For phage-peptide homing analysis, mice were injected into the tail vein with 5×10^10 transducing units (TU) of phage-BLMP6 ([6]). After 30 min of circulation, heart perfusion with 10 ml of PBS was performed and lung sections were processed. For PET imaging studies, mice were intravenously injected with 7.4 MBq (200 μCi, 5 nmol) of ^68Ga-labeled DOTA-BLMP6 and imaged 45–60 min later using Albira small-animal PET/CT scanner (Bruker After imaging, the mice were euthanized, the tissues of interest were harvested and probe homing was analyzed using a Cobra II automated gamma counter (Packard) and expressed as percentage of the injected dose per gram tissue (%ID/g tissue).
To test MMAE-BLMP6 efficacy for cancer suppression, we first used the B16F10 experimental lung metastasis model. […]

[6] = system: MDA-MB-231-luc-GFP lung metastases; assay: MDA-MB-231 experimental lung metastasis model, treatment; type: in vivo, mouse
Excerpt: as §1
To test MMAE-BLMP6 efficacy for cancer suppression, we first used the B16F10 experimental lung metastasis model. Three MMAE-BLMP6 (50 ug) or PBS subcutaneous injections were done over days 1–6 and four additional MMAE-BLMP6 (100 ug) or PBS subcutaneous injections on days 8–18 after iv injection of B16F10-luc cells (Figure 5A). […] While vehicle-treated mice began dying on day 15, with most animals perishing by day 21, MMAE-BLMP6-treated mice only started showing metastases on day 15 by IVIS and survived 2 to 3 days longer (Figure 5A). In the MDA-MB-231-luc-GFP experimental lung metastasis model, a similar trend was observed (Figure 5C).

[7] = target: FBLN4 of mouse 4T1 cancer cells (mouse (endogenous in 4T1)) (UniProt Q9WVJ9)
[8] = target: T2, Fibulin-4 protein (Abcam, 182808) (UniProt O95967 24-443); assay: BLI
T2 chain: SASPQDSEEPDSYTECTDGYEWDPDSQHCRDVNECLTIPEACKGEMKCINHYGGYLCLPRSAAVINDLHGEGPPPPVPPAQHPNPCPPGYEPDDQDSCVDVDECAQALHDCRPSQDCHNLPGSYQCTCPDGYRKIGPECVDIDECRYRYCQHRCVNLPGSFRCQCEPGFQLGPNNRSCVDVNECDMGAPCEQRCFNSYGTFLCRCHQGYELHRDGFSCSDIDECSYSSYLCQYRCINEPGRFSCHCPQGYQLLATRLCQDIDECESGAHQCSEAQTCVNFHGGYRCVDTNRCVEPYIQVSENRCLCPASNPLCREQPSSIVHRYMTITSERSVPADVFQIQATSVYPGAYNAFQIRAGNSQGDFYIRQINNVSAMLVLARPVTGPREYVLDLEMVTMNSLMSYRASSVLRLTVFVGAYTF

AZDye555-BLMP6 (AZDye555-CRAGVGRGC; bridge 1-9 (inferred))
binding to lung sections from mice grafted with 4T1 cells ([1]; 12.5 ug/ml overlay, 2 hr, paraffin sections): selectively bound to metastatic lesions but not to normal lung | binding to lung sections from mice with MDA-MB-231 experimental lung metastases ([1]; 12.5 ug/ml overlay, paraffin sections, N-cadherin IF): binds to a subpopulation of tumor cells expressing N-cadherin | binding across human breast cancer tissue array cores ([1]; human FFPE tissue arrays: 50 primary, 40 metastatic, 10 adjacent control biopsies): largely concordant with N-cadherin expression | binding to HEK293 cells ectopically expressing FBLN4 [2]: confirmed to bind | binding to non-transfected control HEK293 cells [2]: not to non-transfected control cells

CRAGVGRGC (disulfide 1-9 (inferred)) [BLMP6, cyclic peptide … that homes to disseminating tumor cells]
FBLN4 isolated from 4T1 cell proteins on peptide-loaded beads, immunoblotting with anti-FBLN4 antibodies [3]: the predicted 49 kDa band was observed

MMAE-BLMP6: monomethyl auristatin E coupled to all-D BLMP6 via PEG4, valine-citrulline and PAB linker ([dC][dR][dA]G[dV]G[dR]G[dC]; disulfide 1-9 (inferred); also: MMAE coupled via PAB-Cit-Val-PEG4 linker, site not given here)
time after which a secondary degradation peak appeared in mouse serum [4]: 6 h | stability in mouse serum, peaks observed ([4]; after 1 hr): single MMAE-BLMP6 peak was observed | metastasis burden, bioluminescence analysis by IVIS ([5]; sc 50 ug x3 over days 1-6 and 100 ug x4 on days 8-18, versus PBS, at day 5): metastasis suppression | survival longer than vehicle-treated mice ([5]; sc 50 ug x3 then 100 ug x4, vehicle mice began dying on day 15, most by day 21): 2 to 3 days | survival beyond controls, one treated mouse ([6]; MDA-MB-231-luc-GFP iv, one of the treated mice): 9 days | metastasis growth, bioluminescence imaging ([6]; MDA-MB-231-luc-GFP iv, sc treatment versus PBS, days 12 and 21): suppressed metastasis growth | tolerability, clinical observation ([6]; athymic mice, 50 to 100 μg sc, at day 15, treatment interrupted 6 days, re-initiated at 15 μg daily): signs of sickness

B1: MMAE-BLMP6 (peptide)
peptide: [dC][dR][dA]G[dV]G[dR]G[dC]
modifications: disulfide 1-9 (inferred); also: MMAE coupled via PAB-Cit-Val-PEG4 linker, site not given here
IC50 of cell viability (CellTiter-Blue), 4T1 cells, 24 h after adding MMAE-BLMP6 [7]: 0.5 µM

Biotin-CRAGVGRGC (disulfide 1-9 (inferred)) [biotinylated BLMP6, cyclic peptide CRAGVGRGC]
koff [8]: 3.18e-07 s⁻¹

— publication doi:10.1101/2025.06.18.657655, “Fibulin-4 is highly expressed in metastatic breast cancer and can serve as a target of peptide-based imaging probes and experimental therapeutics” (bioRxiv, 2025)
